Patent US20200237909A1, “METHODS OF TREATING OR PREVENTING BREAST CANCER METASTASES USING ANTIBODIES TO JAGGED1 AND CHEMOTHERAPEUTIC AGENTS” (The Trustees of Princeton University, priority 2017, published 2020)

Experiments:
SCP28 = assay: Cleaved PARP and cleaved caspase-3 immunoblotting after cisplatin; assay type: cell-based, human; conditions: SCP28 single-cultured cells, 72 hours post-treatment
Method: FIG. 7. Pro-survival effect of osteoblast Jagged1 on cancer cells can be blocked by 15D11. (A) 3-D tumorsphere culture of MCF7, SCP28, and SUM1315-M1B1 cells, alone or in co-cultured with osteoblast cells, were treated with indicated concentrations of cisplatin or docetaxel. Two days after the chemotherapy, the surviving tumor spheres were counted under the fluorescent microscope. n=3. *p<0.05 by Student's t-test. (B) Cell culture of SCP28 cells alone or in co-culture with MC3T3-E1 pre-osteoblast cells were treated with PBS control or cisplatin. Protein samples were collected at 6 hr, 24 hr, and 72 hr later. Cleaved PARP and cleaved caspase-3 were determined by immunoblotting. # marks full length PARP and * marks cleaved PARP. […] Hind limb bones were fixed and cryo-sectioned for IF staining against CC3 for apoptotic cells and GFP for tumor cells (E), and CC3 positive apoptotic cells among GFP-positive tumor cells were quantified in F. Size bar: 25 μm. n=5. **p<0.01 by Student's t-test. […] Tumor cells in the bone were quantified based on BLI imaging at Day 1 and Day 4. […]
To mimic chemoresistance and tumor seeding effects by osteoblast lineage cells in vitro, an in vitro 3D tumor-stroma co-culture assay (Wang et al., 2015) was adapted. […] Cleaved PARP and cleaved caspase-3 (CC3) status were analyzed by immuno-blotting at different time points after cisplatin treatment. […]

[1] = tested on: Notch downstream genes (human HES2, HEY1, HEY2); assay: Notch downstream gene expression in tumor cells co-cultured with MSC after chemotherapy; assay type: cell-based; conditions: co-culture tumor cells after chemotherapy
MSCs = assay: Stress inducers/inhibitors: Jagged1 expression and ROS production in MSCs; assay type: cell-based, mouse
Text: Next, which signaling pathway is responsible for Jagged1 induction after chemotherapy in osteoblast lineage cells was investigated. Chemotherapy generates many stress responses in cells, including endoplasmic reticulum stress (ER stress), and oxidative stress. Some of the stress conditions have been associated with the regulation of Jagged1 expression (Paul et al., 2014). Several treatments were used to mimic or inhibit these stress responses and then Jagged1 mRNA and protein levels were analyzed within the cells.
293T, H29-Clone #7, MC3T3-E1 Clone #4(denoted as MC3T3 for abbreviation thereafter), MCF7TR, mouse mesenchymal stromal cell (MSC, isolated from BALB/c), 4T1.2, SCP28, SCP28-Vector and -Jagged1 cells, SCP28, RAW264.7, and SUM1315-M1B1 cells were cultured according to American Type Culture Collection instructions and the inventors' previous studies (Ell et al., 2013; Ren et al., 2008; Sethi et al., 2011; Zheng et al., 2014). MSC cells were derived previously and were cultured in DMEM supplemented with 10% FBS, 30 ng/ml bFGF, 100 U/ml penicillin, and 100 μg/ml streptomycin (Ren et al., 2008). All plasmids were transfected into different cell lines using Lipofectamine 2000 following the manufacturer's manual (Life Technologies, CA, USA). To generate stable cell lines, a pLEX-MCS based lentivirus vector or a pMSCV-hygro based retrovirus vector was used in our study. Lentiviruses were packaged in HEK293T cells while retroviruses were packaged by using H29 cell line. Conditional media from these packaging cells containing viruses were collected 2 days and 3 days after transfection. Recipient cell lines were exposed to conditional media containing viruses supplemented with 2 μg/mL Polybrene for 48 h. Infected cells were selected with puromycin or hygromycin to generate stable expressing cell lines. 293T and H29clone #7 are cell lines from female humans. All other cancer cell lines are breast cancer cell lines from either female human or mouse.

N.N.[Cl][Pt][Cl] [cisplatin]
cleaved PARP and CC3 (SCP28): strong induction
Notch downstream genes HES2, HEY1, HEY2 [1]: significantly upregulated
ROS production in MSCs (MSCs): induced ROS production
